Structures can show the parent of a compound that is named as a salt. Where two headings read alike, the source gives them in different places.
Tests used:
MDA-MB-231/ATCC = assay: In vitro anticancer assay (NCI panel), MDA-MB-231/ATCC; type: cell-based; conditions: Homo sapiens, breast cancer
Protocol: (§1) Selected compounds were evaluated in vitro against the NCI's full panel of 60 cancer cell lines derived from nine cancer cell types, including: leukemia (CCRF-CEM, HL-60 (TB), K-562, MOLT-4, RPMI-8226, and SR); non-small cell lung cancer (A549/ATCC, EKVX, HOP-62, HOP-92, NCI-H226, NCI-H23, NCI-H322M, and NCI-H522); colon cancer (COLO 205, HCC-2998, HCT-116, HCT-15, HT29, KM12, and SW-620); CNS cancer (SF-268, SF-295, SF-539, SNB-19, SNB-75, and U251); melanoma (LOX IMVI, MALME-3M, M14, SK-MEL-2, SK-MEL-28, SK-MEL-5, UACC-62, and UACC-257); ovarian cancer (IGROV1, OVCAR-3, OVCAR-4, OVCAR-5, OVCAR-8, and SK-OV-3); renal cancer (786-0, A498, ACHN, CAKI-1, RXF 393, SN12C, TK-10, and UO-31); prostate cancer (PC-3 and DU-145); and breast cancer (MCF7, MCF7/ADR-RES, MDA-MB-231/ATCC, HS 578T, MDA-MB-435, MDA-N, and T-47D). For each compound, dose-response curves for each cell line were measured with five different drug concentrations, and the concentration causing 50% cell growth inhibition (GI50) compared with the control was calculated. The mean GI50 values of each tested compound for all the 60 tumor cell lines were also calculated.

HL-60 (TB) = assay: In vitro anticancer assay (NCI 60 cell line panel), HL-60 (TB); type: cell-based; conditions: Homo sapiens, leukemia
Protocol: as §1

786-0 = assay: In vitro anticancer assay (NCI panel), 786-0; type: cell-based; conditions: Homo sapiens; 786-0, renal cancer
Protocol: as §1

PC-3 = assay: In vitro anticancer assay (NCI panel), PC-3; type: cell-based; conditions: Homo sapiens; PC-3, prostate cancer
Protocol: as §1

SK-MEL-2 = assay: In vitro anticancer assay (NCI panel), SK-MEL-2; type: cell-based; conditions: Homo sapiens; SK-MEL-2, melanoma
Protocol: as §1

HT29 = assay: In vitro anticancer assay (NCI panel), HT29; type: cell-based; conditions: Homo sapiens, HT-29; HT29, colon cancer
Protocol: as §1

SF-295 = assay: In vitro anticancer assay (NCI panel), SF-295; type: cell-based; conditions: Homo sapiens; SF-295, CNS cancer
Protocol: as §1

ACHN = assay: In vitro anticancer assay (NCI panel), ACHN; type: cell-based; conditions: Homo sapiens, renal cancer
Protocol: as §1

SF-268 = assay: In vitro anticancer assay (NCI panel), SF-268; type: cell-based; conditions: Homo sapiens; SF-268, CNS cancer
Protocol: as §1

LOX IMVI = assay: In vitro anticancer assay (NCI panel), LOX IMVI; type: cell-based; conditions: Homo sapiens, melanoma
Protocol: as §1

OVCAR-5 = assay: In vitro anticancer assay (NCI panel), OVCAR-5; type: cell-based; conditions: Homo sapiens; OVCAR-5, ovarian cancer
Protocol: as §1

A549/ATCC = assay: In vitro anticancer assay (NCI panel), A549/ATCC; type: cell-based; conditions: Homo sapiens, non-small cell lung cancer
Protocol: as §1

[1] = tested on: NCI's full panel of 60 cancer cell lines; assay: In vitro anticancer assay, all cell lines of the NCI panel; type: cell-based, human
Protocol: as §1

MCF7 = assay: In vitro anticancer assay (NCI panel), MCF7; type: cell-based; conditions: Homo sapiens; MCF7, breast cancer
Protocol: as §1

SNB-19 = assay: In vitro anticancer assay (NCI panel), SNB-19; type: cell-based; conditions: Homo sapiens; SNB-19, CNS cancer
Protocol: as §1

UACC-62 = assay: In vitro anticancer assay (NCI panel), UACC-62; type: cell-based; conditions: Homo sapiens; UACC-62, melanoma
Protocol: as §1

SR = assay: In vitro anticancer assay (NCI panel), SR; type: cell-based; conditions: Homo sapiens, leukemia
Protocol: as §1

NCI-H460 = assay: In vitro anticancer assay (NCI panel), NCI-H460; type: cell-based; conditions: Homo sapiens; NCI-H460, non-small cell lung cancer
Protocol: as §1

COLO 205 = assay: In vitro anticancer assay (NCI panel), COLO 205; type: cell-based; conditions: Homo sapiens; COLO 205, colon cancer
Protocol: as §1

MDA-MB-435 = assay: In vitro anticancer assay (NCI panel), MDA-MB-435; type: cell-based; conditions: Homo sapiens; MDA-MB-435, breast cancer
Protocol: as §1

DU-145 = assay: In vitro anticancer assay (NCI panel), DU-145; type: cell-based; conditions: Homo sapiens; DU-145, prostate cancer
Protocol: as §1

HOP-62 = assay: In vitro anticancer assay (NCI panel), HOP-62; type: cell-based; conditions: Homo sapiens; HOP-62, non-small cell lung cancer
Protocol: as §1

OVCAR-8 = assay: In vitro anticancer assay (NCI panel), OVCAR-8; type: cell-based; conditions: Homo sapiens; OVCAR-8, ovarian cancer
Protocol: as §1

OVCAR-3 = assay: In vitro anticancer assay (NCI panel), OVCAR-3; type: cell-based; conditions: Homo sapiens; OVCAR-3, ovarian cancer
Protocol: as §1

K-562 = assay: In vitro anticancer assay (NCI panel), K-562; type: cell-based; conditions: Homo sapiens, K562; K-562, leukemia
Protocol: as §1

telomerase = telomerase (Homo sapiens, UniProt O14746); assay: Telomeric Repeat Amplification Protocol (TRAP) assay, cell-free; conditions: 0.5 μg total cell extract from H1299 human lung cancer cells, FIG. 1
HCT-116 = assay: In vitro anticancer assay (NCI panel), HCT-116; type: cell-based; conditions: Homo sapiens; HCT-116, colon cancer
Protocol: as §1

SN12C = assay: In vitro anticancer assay (NCI panel), SN12C; type: cell-based; conditions: Homo sapiens, renal cancer
Protocol: as §1

[2] = Homo sapiens, mean values of over all cell lines tested, read-out: MG MID (mean GI50)

Sequence of telomerase (O14746 whole entry): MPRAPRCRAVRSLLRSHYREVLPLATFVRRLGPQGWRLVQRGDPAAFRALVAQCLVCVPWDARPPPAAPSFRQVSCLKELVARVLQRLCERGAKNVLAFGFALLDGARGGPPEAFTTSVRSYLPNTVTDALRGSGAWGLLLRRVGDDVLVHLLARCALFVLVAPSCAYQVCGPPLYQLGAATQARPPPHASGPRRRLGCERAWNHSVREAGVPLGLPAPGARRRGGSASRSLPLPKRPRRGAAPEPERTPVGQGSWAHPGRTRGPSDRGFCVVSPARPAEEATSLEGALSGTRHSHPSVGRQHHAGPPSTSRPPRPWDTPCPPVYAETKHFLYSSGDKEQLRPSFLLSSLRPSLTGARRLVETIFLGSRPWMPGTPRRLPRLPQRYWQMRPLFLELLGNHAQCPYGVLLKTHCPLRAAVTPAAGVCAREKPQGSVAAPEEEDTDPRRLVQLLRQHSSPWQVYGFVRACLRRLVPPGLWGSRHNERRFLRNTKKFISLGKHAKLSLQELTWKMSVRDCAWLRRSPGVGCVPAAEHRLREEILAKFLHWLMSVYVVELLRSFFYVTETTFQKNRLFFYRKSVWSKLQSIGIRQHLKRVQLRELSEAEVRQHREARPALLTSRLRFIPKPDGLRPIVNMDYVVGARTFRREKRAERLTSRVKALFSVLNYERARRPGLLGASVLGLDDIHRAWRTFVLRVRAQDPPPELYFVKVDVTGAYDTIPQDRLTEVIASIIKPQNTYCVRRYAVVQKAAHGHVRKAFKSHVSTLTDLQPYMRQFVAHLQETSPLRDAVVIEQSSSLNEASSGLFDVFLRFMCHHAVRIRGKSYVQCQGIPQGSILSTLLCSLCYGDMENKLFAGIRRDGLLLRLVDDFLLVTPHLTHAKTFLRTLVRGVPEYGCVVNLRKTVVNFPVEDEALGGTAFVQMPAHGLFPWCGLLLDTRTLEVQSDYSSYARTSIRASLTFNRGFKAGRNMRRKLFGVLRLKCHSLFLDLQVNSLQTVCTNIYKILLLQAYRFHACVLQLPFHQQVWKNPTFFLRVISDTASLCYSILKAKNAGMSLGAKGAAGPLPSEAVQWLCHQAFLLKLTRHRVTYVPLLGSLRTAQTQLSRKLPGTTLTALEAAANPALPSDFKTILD

Compound	GI50 (MDA-MB-231/ATCC) [nM]	GI50 (HL-60 (TB)) [nM]	GI50 (786-0) [nM]	GI50 (SK-MEL-2) [nM]	GI50 (HT29) [nM]	GI50 (SF-295) [nM]	GI50 (ACHN) [nM]	GI50 (SF-268) [nM]	GI50 (LOX IMVI) [nM]	GI50 (OVCAR-5) [nM]	GI50 (A549/ATCC) [nM]	GI50 [1, 2] [nM]	GI50 (MCF7) [nM]	GI50 (SNB-19) [nM]	GI50 (UACC-62) [nM]	GI50 (SR) [nM]	GI50 (NCI-H460) [nM]	GI50 (COLO 205) [nM]	GI50 (MDA-MB-435) [nM]	GI50 (DU-145) [nM]	further results
Oc1ccc(CCNc2nc3ccccc3c3[nH]c4ccccc4c23)cc1 [Compound 7a, 6-[2-(4-Hydroxyphenyl)ethylamino]-11H-indolo[3,2-c]quinoline hydrochloride]	1360	2400	1290	1730	1420	1380	1270	1710	1590	2890	1330	1700	1370	1830	1660	1480	1310	1180	1600	1450	GI50 (PC-3): 1630 nM; GI50 (HOP-62): 1630 nM; GI50 (OVCAR-8): 1020 nM; GI50 (OVCAR-3): 1600 nM; GI50 (K-562): 1910 nM; concentration that completely inhibited telomerase activity (telomerase): approximately 2 nM; GI50 (HCT-116): 1220 nM; GI50 (SN12C): 1270 nM
CN(CCCNc1nc2ccccc2c2[nH]c3ccccc3c12)CCCNc1nc2ccccc2c2[nH]c3ccccc3c12.Cl [Compound 8b, N,N-bis-[3-(11H-indolo[3,2-c]quinolin-6-yl)aminopropyl]-N-methylamine hydrochloride]	90	< 10	< 10	70	< 10	< 10	20	< 10	< 10	80	< 10	< 20	< 10	< 10	60	< 10	< 10	20	110	50	GI50 (PC-3): 70 nM; GI50 ([1]; Homo sapiens, span over the cell lines of Table 2, read-out: GI50 value for each cell line (span over the cell lines)): 10 to 110 nM; GI50 (HOP-62): < 10 nM; GI50 (OVCAR-8): < 10 nM; GI50 (OVCAR-3): 50 nM; GI50 (K-562): < 10 nM; concentration that completely inhibited telomerase activity (telomerase): approximately 0.02 nM; GI50 (HCT-116): < 10 nM; GI50 (SN12C): < 10 nM
Cl.OCCNc1nc2ccccc2c2[nH]c3ccccc3c12 [Compound 7d, 2-(11H-indolo[3,2-c]quinolin-6-ylamino)ethanol hydrochloride]	430	560	450	570	280	450	160	560	360	1030	410	460	370	410	1150	210	290	310	410	690	melting point: 344 to 345 °C; GI50 (HOP-62): 580 nM; GI50 (OVCAR-8): 360 nM; GI50 (OVCAR-3): 470 nM; GI50 (K-562): 460 nM; GI50 (HCT-116): 230 nM; GI50 (SN12C): 220 nM
COc1ccc(CCNc2nc3ccccc3c3[nH]c4ccccc4c23)cc1OC [Compound 7c, 6-[2-(3,4-dimethoxyphenyl)ethylamino]-11H-indolo[3,2-c]quinoline hydrochloride]																					concentration that completely inhibited telomerase activity (telomerase): approximately 2 nM
CN(CCCN)CCCNc1nc2ccccc2c2[nH]c3ccccc3c12 [Compound 10, N^1-[3-(11H-Indolo[3,2-c]quinolin-6-ylamino)propyl]-N^1-methylpropane-1,3-diamine hydrochloride]	170	90	90	200	150	130	380	250	210	150	80	180	50	150	190	370	310	180	190	240	GI50 (PC-3): 320 nM; GI50 (HOP-62): 150 nM; GI50 (OVCAR-8): 40 nM; GI50 (OVCAR-3): 220 nM; GI50 (K-562): 40 nM; GI50 (HCT-116): 80 nM; GI50 (SN12C): 70 nM
NCCCN1CCN(CCCNc2nc3ccccc3c3[nH]c4ccccc4c23)CC1 [Compound 6, {3-[4-(3-Aminopropyl)piperazin-1-yl]propyl}(11H-indolo[3,2-c]quinolin-6-yl)amine hydrochloride]	230	420	260	180	140	140	200	310	290	250	200	~300	120	270	210	350	300	210	370	120	GI50 (PC-3): 350 nM; GI50 (HOP-62): 240 nM; GI50 (OVCAR-8): 40 nM; GI50 (OVCAR-3): 240 nM; GI50 (K-562): 70 nM; concentration that completely inhibited telomerase activity (telomerase): approximately 0.02 nM; GI50 (HCT-116): 180 nM; GI50 (SN12C): < 10 nM
c1ccc2c(c1)nc(NCCN1CCNCC1)c1c3ccccc3[nH]c21 (as salt: hydrochloride) [Compound 5, N-(11H-Indolo[3,2-c]quinolin-6-yl)-2-(piperazin-1-yl)ethanamine]																					melting point: 210 to 211 °C
6-[2-(3,4-dihydroxyphenyl)ethylamino]-11 indolo[3,2-c]quinoline hydrochloride [Compound 7b]																					concentration that completely inhibited telomerase activity (telomerase): approximately 2 nM
c1ccc2c(c1)nc(NCCN1CCNCC1)c1c3ccccc3[nH]c21 [Compound 5, N-(11H-Indolo[3,2-c]quinolin-6-yl)-2-(piperazin-1-yl)ethanamine]	340	290	220	1060	120	310	380	500	200	540	110	~300	80	300	1260	180	190	220	630	160	GI50 (PC-3): 310 nM; GI50 ([1]; mean values of over all cell lines tested, read-out: MG MID (mean GI50)): 350 nM; GI50 (HOP-62): 400 nM; GI50 (OVCAR-8): 40 nM; GI50 (OVCAR-3): 270 nM; GI50 (K-562): 70 nM; concentration that completely inhibited telomerase activity (telomerase): approximately 0.02 nM; GI50 (HCT-116): 70 nM; GI50 (SN12C): 80 nM

From patent publication US8273760B2, “Indolo[3,2-c]quinoline compounds” (Kaohsiung Medical University, priority 2008, dated 2012)
